{"source": "patent US20230107770A1", "about": "“METHOD OF ENHANCING IMMUNOTHERAPY USING ER STRESS PATHWAY INHIBITORS” (H. LEE MOFFITT CANCER CENTER AND RESEARCH INSTITUTE, INC., priority 2020, published 2023)", "key": {"B16 tumors": {"system": "B16 tumors", "assay": "s.c. B16 melanoma tumor model in mice", "format": "in vivo"}, "tumor-MDSC": {"system": "tumor-MDSC", "assay": "Ex vivo suppression assay: tumor-MDSC co-cultured with primed CFSE-labeled T cells", "format": "cell-based, mice", "conditions": "tumor-MDSC (1:1/4) from B16-bearing mice; AMG-44 12 mg/kg", "method": "CD3^+ T cells were enriched using mouse or human T cell negative selection kits (MagniSort, Invitrogen) from the spleen and lymph nodes of C57BL/6 mice; or from purchased human buffy-coat units (One-Blood, Tampa, Fla.). Purity ranged between 95% and 99% as tested by flow cytometry. For antigen-specific priming studies, CD8^+ T cells were enriched using negative selection kits from the spleens of OT-I mice previously activated with OVA257-264 (SIINFEKL) for 48 hours. Tumor-MDSC were isolated from cellular suspensions of digested tumors followed by positive selection (MojoSort Streptavidin Nanobeads, Biolegend) using anti-Gr1 (Clone RB6-8C5, eBioscience) or anti-CD11b-biotinylated antibodies (Clone M1/70, StemCell Technologies, Vancouver). Also, M-MDSC (CD11b^+Gr1^+Ly6G^lowLy6C^high), PMN-MDSC (CD11b^+Gr1^+Ly6G^+Ly6C^low), macrophages (CD11b^+Gr1^negF4/80^+CD11c^neg), and myeloid DCs (CD11b^+Gr1^negF4/80^negCD11c^+) were sorted from tumors in a FACSAriaII (BD Biosciences).\n(§1) Murine BM-MDSC (ratio 1:1/8) or tumor-MDSC (ratio 1:1/4) were co-cultured with negatively selected CD3^+ T cells in a 96 well plate bound α-CD3 and α-CD28 (1 μg/ml each, eBioscience) for 3 days. T cell proliferation was assessed with Carboxyfluorescein succinimidyl ester (CFSE) or Cell-trace violet (Invitrogen) dye dilution detected by flow cytometry. For human studies, MDSC were co-cultured with enriched CD3^+ T cells activated with soluble α-CD3 (1 μg/ml, clone OKT3) and α-CD28 (0.5 μg/ml, clone L293) for 3 days in a 96 well plate bound with goat anti-mouse IgG (10 μg/ml). Results are expressed as percentage of proliferating T cells, determined by the dilution of fluorescence compared with non-stimulated T cells."}, "murine BM-MDSC": {"system": "murine BM-MDSC", "assay": "In vitro suppression assay with murine BM-MDSC", "format": "cell-based, mouse", "method": "Mouse BM-MDSC were generated after culturing BM precursors with GM-CSF and G-CSF (20 ng/ml each) for 4 days. In vitro generated MDSC were treated with either LLC tumor explant supernatants (TES, since day 0) or Thaps (200 nM, for the last 24 hours of culture). Human BM-MDSC were developed after culturing BM or peripheral blood precursors from healthy donors with GM-CSF and IL-6 (10 ng/ml each) for a period of 6 days (Thevenot et al., 2014). To induce UPR activation, MDSC were treated with either supernatants from renal cell carcinoma cells 786-0 (hTES) for 6 days (Rodriguez et al., 2009) or Thaps during the last 24 hours before collection (200 nM). In some experiments, MDSC were pre-incubated for 3 hours with Resveratrol (100 μM, Sigma-Aldrich), D,L-Sulphoraphane (20 μM), AMG-44 (5 μM), or TUDCA (500 nM) before treating with Thaps.\nas §1"}, "CD8+ TILs": {"system": "CD8+ TILs", "assay": "Flow cytometry of tumor-infiltrating CD8+ T cells from treated mice", "format": "in vivo", "method": "All analysis was performed using FlowJo version 11 software."}, "[1]": {"assay": "Blood glucose and pancreatic islets in B16-bearing mice", "format": "in vivo", "text": "Hematoxylin and Eosin (H&E) stained slides were scanned in an Aperio AT2 whole slide scanner (Leica Biosystems Inc.) equipped with a 20×0.7NA objective lens Images were created at 0.5 micron per pixel resolution and imported into Definiens Tissue Studio software v4.7 (Definiens AG) for analysis. Islets were found using a semi-automated segmentation process. First an automatic segmentation was applied to the image to create contour lines around objects within the image. Objects that contained islets were classified as such and remaining objects were classified as non-islet tissue. Next, adjacent objects of the same classification were merged together to clean up the segmentation. Segmented images were analyzed to provide the total area of islets Immunofluorescence for mouse insulin in pancreas tissue sections was performed as we described (Sultan et al., 2017). Labeled samples were scanned with a Zeiss Imager Z2 Upright FL microscope with a 10× objective lens using the tile scan function. Images were created at a\n0.65 micron per pixel resolution and imported into the Definiens Tissue Studio software v4.7 (Definiens AG) for islet detection and analysis. Islets were detected using a semi-automated segmentation process. First, an automatic segmentation was applied to the image to detect the tissue. Then, the software was trained to detect islet vs. non-islet tissue within the image. In order to remove false detected islets caused by background staining, detected islets larger than 150,000 square microns and less than 600 square microns were reclassified to non-islet tissue. Segmented images were then analyzed to provide the fluorescent intensity of islets and total tissue area."}, "human FSH-CER T cells": {"system": "human FSH-CER T cells", "assay": "Expansion of IL-2-supplemented human FSH-CER T cells with ER stress inhibitors", "format": "cell-based", "conditions": "treatment for 5 days", "method": "The role of the PERK-Chop in the expansion of tumor TRM cells using conditional T cell Chop-null mice was evaluated. In agreement with the inhibitory effect of Chop in TRM development, higher frequency of TRM cells was detected in tumors from T cell-Chop^KO mice compared to controls (FIG. 23A). Next, we tested the effect of the inhibition of PERK (AMG-44) and IRE 1α (MKC8866) during the expansion of IL-2-supplemented human FSH-CER T cells. […] Also, we evaluated the therapeutic effect of the combination of ER stress-targeting therapy and FSH-CER. Thus, mice bearing FSHR+-ID8-Defb29/Vegfa ovarian tumors for 7 days received daily treatments with MKC8866 (i.p., 300 mg/kg) or AMG-44 (i.p. 12 mg/kg) for one-week, and i.p. transfer of FSH-CER T cells at days 7 and 14 post-tumor challenge. […] We postulate that treatments for longer time periods with ER stress inhibitors will further potentiate the effect of FSH-CER T cells"}}, "data": [{"smiles": "Cc1ccc2cc(-c3c(C)ccc(C(=O)c4c(-c5ccccc5)n(C)n(-c5ccccc5)c4=O)c3N)ccc2n1", "note": "[AMG-44]", "values": [{"measurement": "combination with anti-PD-L1 immunotherapy", "setting": "B16 tumors; B16-bearing mice, AMG-44 12 mg/kg plus 250 μg anti-PD-L1 every 3rd day", "value": "synergized with anti-PD-L1 immunotherapy"}, {"measurement": "therapeutic anti-tumor action in Eif2ak3^KO-Lyz2 mice", "setting": "B16 tumors; B16, AMG-44 12 mg/kg", "value": "not in Eif2ak3^KO-Lyz2 counterparts"}, {"measurement": "therapeutic anti-tumor action in PERK-competent mice", "setting": "B16 tumors; B16, AMG-44 12 mg/kg, Eif2ak3^Flox mice", "value": "detected in PERK-competent mice"}, {"measurement": "tumor growth", "setting": "B16 tumors; B16, daily i.p. GSK2606414 25 mg/kg or AMG-44 12 mg/kg from day 7", "value": "delayed tumor growth"}, {"measurement": "immunoinhibitory activity of tumor-MDSC", "setting": "tumor-MDSC", "value": "impaired the immunoinhibitory activity of tumor-MDSC"}, {"measurement": "ability of Thaps-treated BM-MDSC to impair T cell proliferation", "setting": "murine BM-MDSC; BM-MDSC (1:1/8) exposed 3 hours to 5 μM AMG-44", "value": "overcame the ability of Thaps-treated BM-MDSC to impair T cell proliferation"}, {"measurement": "MDSC-baseline activity", "setting": "murine BM-MDSC; control BM-MDSC exposed 3 hours to 5 μM AMG-44", "value": "without affecting MDSC-baseline activity"}, {"measurement": "tumor-infiltrating CD8+ T cells expressing IFNγ", "setting": "CD8+ TILs; B16-bearing mice, AMG-44 12 mg/kg", "value": "induced expansion"}, {"measurement": "frequency of IFNγ-producing CD8+ T cells in tumors", "setting": "CD8+ TILs; B16, GSK2606414 25 mg/kg or AMG-44 12 mg/kg, 17 days post-tumor injection", "value": "amplified the frequency of IFNγ-producing CD8^+ T cells in tumors"}, {"measurement": "blood glucose levels", "setting": "[1]; AMG-44 12 and 24 mg/kg", "value": "without alterations"}, {"measurement": "insulin expression in the pancreatic islets", "setting": "[1]; AMG-44 12 and 24 mg/kg", "value": "without alterations"}, {"measurement": "size of the pancreatic islets", "setting": "[1]; AMG-44 12 and 24 mg/kg", "value": "without alterations"}, {"measurement": "glucose levels in the serum", "setting": "[1]; B16-bearing mice treated for a week, GSK2606414 25 mg/kg or AMG-44 12 mg/kg, day 17", "value": "failed to show alterations in glucose levels"}, {"measurement": "frequency of FSH-CER TRM cells", "setting": "human FSH-CER T cells", "value": "Higher frequency of FSH-CER TRM cells"}]}]}
